Assays:
[1] = Serum lipid and lipoprotein profile of apoE knockout mice; format: in vivo, mouse
Method: The effect of each treatment on the lipid profile of each group of mice was determined by measuring the cholesterol and triglyceride. Blood from a terminal bleed was collected in a polypropylene tube, allowed to clot at room temperature for 2 hours and then spun (1,000×g; 5 minutes). The serum supernatant was aliquoted and stored at −20° C. until assayed. Total cholesterol and total triglycerides were determined for each mouse using the cholesterol oxidase and glycerol kinase UV end-point enzymatic methods respectively (Sigma Diagnostics).

[2] = Simvastatin for 16 weeks in patients with high cholesterol; format: in vivo, human; details: six time points
Method: Twenty six patients with high cholesterol were administered simnvastatin for 16 weeks. Blood was collected at six times points during the 16 weeks and analyzed for TGF-beta levels.

apoE knockout mice = experiment: Lipid lesion development in aortic sinus of apoE knockout mice (Oil Red O)
Method: To determine the efficacy of combination therapy, and to provide evidence for synergism between aspirin and fish oil, 8-week-old female apoE knockout mice were fed aspirin or fish oil, or both, to assess the cardioprotective effects of modulating different components of the TGF-beta pathway.
Group A mice (n=10) were sacrificed at day 0. Group B mice (n=10) were fed normal chow. […] Group D mice (n=10) were fed chow containing 33 mg/kg/day fish oil (200 μg Pulse cod liver oil/g food, Seven Seas Ltd., which contains 0.9 g eicosapentaenoic acid (EPA), and 0.3 g docosahexaenoic acid (DHA)) and 3 mg/kg/day aspirin dissolved in water. Group E mice (n=10) were fed chow containing 33 mg/kg/day fish oil. Group F mice (n=10) were fed chow containing Zocor (simvastatin; Zocor tablets, Merck, Sharpe & Dohme) at 400 μg/kg/day (2 μg/g food).
Groups B-F were fed these regimens for 87 days. All mice were weighed daily for the first week and weekly thereafter. Food and water consumption over a 24 hour period were measured daily for the first 7 days and weekly thereafter.
After 87 days, mice in groups B-F were fasted overnight and then sacrificed. Serum, heart, lungs and aorta samples were collected at the time of sacrifice. The heart, lungs and aorta were removed from each mouse and rinsed in PBS, dabbed dry on tissue and embedded in Cryo-M-bed embedding medium (Bright Instruments, Huntington, U.K.) before snap freezing in liquid nitrogen. Frozen sections (4 μm thickness) of the aortic sinus region were prepared from the heart/lung/aorta blocks according to the sectioning strategy of Paigen et al. (Arteriosclerosis, 10, 316 (1990)). Sections on 5% gelatin-coated slides were stained for neutral lipid by the Oil Red O technique and counter-stained with fast green (Grainger et al., Nature Med., 1, 1067 (1995)).
The development of lipid-filled vascular lesions was determined by the quantitation of oil red O staining for neutral lipid deposited in the aortic sinus region. The area of lipid accumulation was measured using a calibrated microscope eye-piece, such that lipid droplets<50 μm^2 were ignored and contiguous regions of lipid staining>500 μm in area were classified as lesions.

osteopontin = experiment: Osteopontin in vessel wall (quantitative immunofluorescence); format: in vivo, mouse; details: 87 days treatment
Method: (§1) SM-α-actin and osteopontin were measured by quantitative immunofluorescence microscopy using specific primary antibodies A-6125 (Sigma) and MBP111Bio (NIH Developmental Studies Hybridoma Bank), respectively.

[3] = test system: smooth muscle α-actin (SM-α-actin); experiment: SM-alpha-actin in vessel wall (quantitative immunofluorescence); format: in vivo, mouse; details: 87 days treatment
Method: as §1

TGF-beta = TGF-beta in vessel wall of apoE knockout mice (quantitative immunofluorescence); format: in vivo, mouse; details: 87 days treatment
Method: No. 08/478,936, filed Jun. 7, 1995, which is incorporated by reference herein. […] Sigma) and fixed in ice-cold acetone for 90 seconds, air-dried and stored at -20° C. until assayed. […] R&D Systems), see Mosedale et al., Histochem. Cytochem., 44, 1043 (1996), the disclosure of which is incorporated by reference herein. Active TGF-beta wag measured by quantitative immunofluorescence microscopy using the recombinant extracellular domain of the type II TGF-beta receptor […]) labeled with fluorescein.

[4] = single measurement on pooled blood of the group

## CCC(C)(C)C(=O)O[C@H]1C[C@@H](C)C=C2C=C[C@H](C)[C@H](CC[C@@H]3C[C@@H](O)CC(=O)O3)[C@H]21 [Zocor, simvastatin]
[1]; serum, 87 days treatment
  Total cholesterol: 224 ± 29 mg/dL
  Total triglyceride: 266 ± 14 mg/dL
[1]; [4]
  HDL-cholesterol: 35 mg/dL
  LDL-cholesterol: 54 mg/dL
  VLDL-cholesterol: 158 mg/dL
[1]; three months
  change in LDL-cholesterol vs control mice: −41%
  change in VLDL-cholesterol vs control mice: −14%
  change in total plasma cholesterol vs control mice: −27%
  reduction in total plasma triglyceride concentration: −12%
[2]
  effect on TGF-beta levels: no effect
apoE knockout mice; 3 month treatment
  change in lesion development / lesion formation vs untreated mice: −7%
apoE knockout mice; 87 days treatment
  Number of Lesions: 8.1 ± 0.4
apoE knockout mice; 87 days treatment, per mouse, n=10
  Lesion Area (μm^2 staining): 25,777 ± 1368 μm^2
osteopontin
  Osteopontin: 73 ± 8
[3]
  SMα Actin: 114 ± 19
TGF-beta
  Active + Latent TGF-beta in Vessel Wall: 44 ± 5
  Active TGF-beta in Vessel Wall: 20 ± 3

Reference: patent US6410587B1, “Compounds and therapies for the prevention of vascular and non-vascular pathologies” (NeoRx Corporation, priority 1997, dated 2002)
